Assay results published in US8034329B2, “Repair and regeneration of renal tissue using human umbilical cord tissue-derived cells” (Advanced Technologies And Regenerative Medicine, LLC, priority 2007, dated 2011).

System: HLA-DR, DP, DQ expression of hUTC
Assay: Inhibition of IFN-gamma-induced expression of HLA-DR, DP, DQ on hUTC, flow cytometry
Type: cell-based, human
Experimental: Culture-expanded human umbilical cord tissue-derived cells (022803 P4) were seeded into 6-well tissue culture plates and cultured in Dulbecco's Modified Eagles Media (DMEM)-low glucose, 15% fetal bovine serum (FBS), penicillin/streptomycin (P/S), Betamercaptoethanol (BME) to approximately 70% confluence. The cells were then treated with media containing 10 μM of respective HMG-CoA reductase inhibitor (Simvastatic acid (Alexis Biochemicals, Lausen, Switzerland) formulated as 10 mM stock reagents in DMSO) or DMSO vehicle—0.1% (Sigma, St. Louis, Mo.) and incubated overnight. The media was removed by aspiration and replaced with media containing 500 U/ml rhIFN-gamma (BD Pharmingen, Franklin Lakes, N.J.) and […] of respective HMG-CoA reductase inhibitor and incubated for 3 days. On day three, cells were harvested with trypsin.
Harvested cells were washed once with PBS and re-suspended in 100 μl of 3% FBS in PBS with 20 μl FITC-labeled HLA-DR,DP,DQ (BD Biosciences, Franklin Lakes, N.J.) or FITC-labeled IgG antibody (BD Biosciences, Franklin Lakes, N.J.) and incubated for one hour. Cells were washed once in PBS and resuspended in 500 μl PBS and analyzed on a FACSCalibur flow cytometer (BS Biosciences, Franklin Lakes, N.J.).

SMILES: CCC(C)(C)C(=O)O[C@H]1C[C@@H](C)C=C2C=C[C@H](C)[C@H](CC[C@@H]3C[C@@H](O)CC(=O)O3)[C@H]21 [Simvastatin]
- HLA-DR, DP, DQ expression, FITC fluorescence intensity, IFN-gamma-treated, mean (10 μM inhibitor overnight, then 500 U/ml rhIFN-gamma plus inhibitor 3 days): 5.57
- HLA-DR, DP, DQ expression, FITC fluorescence intensity, No cytokine treatment, Mean (10 μM inhibitor, no IFN-gamma): 5.66
- FITC fluorescence intensity, IgG control, mean (10 μM inhibitor, FITC-labeled IgG antibody): 4.4
